This is an account of results in patent US9416173B2, “Peptide and conjugate vaccines for fungal infections” (priority 2011, dated 2016).

Experiment [1] concerns anti-Fba antibodies in immune sera. Briefly: ELISA inhibition assay with modified Fba peptides as inhibitors. It counts as binding, mice. Particulars: compared with original Fba inhibition curve. On the procedure:
The specificity of MAb E2-9 for Fba peptide was determined by an inhibition ELISA as described previously (52, 53). Briefly, Fba-MAP was dissolved in DPBS (5 μg/ml), and the solution was used to coat 96-well ELISA plates (100 μl, overnight at 4° C.). The wells were washed five times with PBST (PBS containing Tween 20, 0.05% [vol/vol] and blocked with 1% bovine serum albumin-PBST. MAb E2-9 produced as described above, was serially diluted up to 10,000 for ELISA measurements. Unless otherwise stated, the serum was diluted 1:100 dilution in DPBS to determine the content of antibody by ELISA. MAb E2-9 was mixed with Fba peptide (inhibitor) (dissolved in PBST at a concentration between 0.1 μM and 1 mM), and the resulting solution of each concentration was added to the Fba-MAP coated microtiter wells (solid phase) in triplicate and incubated at 21 to 23° C. for 2 h. Unless otherwise stated, the concentration of test antigens used to coat the wells was about 5-10 μg/ml. The wells were washed three times with PBST, and goat anti-mouse heavy chain specific for IgM was HRP-conjugated (diluted 1:10,000 in PBST) (Sigma) and 100 μl was added to the corresponding wells and incubated for 1 h at 21 to 23° C. The wells were washed five times with PBST, followed by addition of 100 μl of substrate solution (25 ml of 0.05 M phosphate-citrate buffer [pH 5.0], 200 μl of an aqueous solution of O-phenylenediamine 50 mg/ml [Sigma], and 10 μl of 30% H2O2). Color was allowed to develop for 10 min, stopped by addition of […] of 2 M H2SO4, and read at 492 nm (microtiter plate reader, model 450; Bio-Rad, Richmond, Calif.). The percent inhibition was calculated relative to wells containing antibody without inhibitor.
The specificity of anti-Fba antibodies in immune sera was tested for the modified Fba peptides as determined by ELISA inhibition assay. Peptide 1, original Fba, which was used as an inhibitor, was included as a positive control. The inhibition curve of FIG. 17 serves to compare the curves with the other modified peptides 2-11. FIGS. 18A, 18B, 18C, and 18D show the results of ELISA inhibition assays for peptide 2, peptide 3, peptide 4 and peptide 5, respectively. Each methylated peptide was used as an inhibitor in the designated assay. […] The reaction is dose-dependent for each group, indicating anti-Fba antibodies in immune sera were specific for the modified peptides. […] The binding of peptide 11, which has two extra cysteines may indicate that the binding site of Fba with antibody is located at the carboxyl part of the peptide.
A general note: ELISA stands for enzyme-linked immunosorbent assay.

A further experiment relates to synthetic peptides. Briefly: ELISA antibody responses to peptide-pulsed DC vaccines. It counts as in vivo, BALB/c mice. Particulars: general fungal peptides, peptide-pulsed DC + CFA. On the procedure:
The murine dendritic cells (DCs) were pulsed in vitro with peptide candidate vaccine antigens as previously described (53). Briefly, DCs in culture were pulsed with the peptide antigen (1 μM) on day 6. On day 7, PGE2 (10^-7M) was added along with LPS (2 μg/ml, Sigma-Aldrich) for 24 h. On day 9, antigen-pulsed DCs were washed extensively and 5×10^5 in 200 μl DPBS were given intraperitoneally (i.p.) as the priming dose to mice. The mice were boosted i.p. at day 14 with fresh antigen-pulsed DCs and boosted a second time at day 28 with antigen (10 μg) emulsified in complete Freund adjuvant (CFA) given subcutaneously (s.c.).
Sera were ELISA analyzed for antibody titers. For DC-based immunization, control groups consisted of mice given DCs alone at the time of priming and first booster followed by CFA alone at the time of the second booster, or DPBS alone for all three injections. For Fba peptides administered with alum or MPL, control groups were mice given adjuvant alone or DPBS buffer. […] Synthetic Fba-MAP (GenScript) was dissolved at 5 μg/ml in PBS (pH 7.4) and used to coat 96-well ELISA plates for testing duplicate serial 2-fold dilutions of samples of each immune serum and control sera. Color development for each well was achieved by use of secondary antibody (goat anti-mouse polyvalent Ig-HRP) and substrate (O-phenylenediamine and H2O2) and OD determined at 492 nm.
FIGS. 1A-1C show the antibody responses in BALB/c mice against peptide-pulsed DC vaccines. Sera from mice immunized with the six synthetic peptide carriers presented on dendritic cells (DCs) for the priming and first booster immunizations and emulsified in complete Freund adjuvant (CFA) for the second booster were tested by ELISA for antibody responses against the peptides. Control groups consisted of mice given the same regimen for priming and boosters except that the peptides were omitted (DCs+CFA) or DPBS only was used at each injection time. […] The bars of each panel indicate means of CFUs per kidney pair for each group. The lowest limit of detection for the CFU assay is 50 CFU per kidney pair.
Sera were ELISA analyzed for antibody titers. Control groups consisted of mice given DCs alone at the time of priming and first booster followed by DPBS at the time of the second booster, DPBS for the priming and first booster and CFA alone at the time of the second booster, DPBS alone for all three injections, or DCs alone for priming and first booster followed by CFA alone at the time of the second booster. Briefly, synthetic peptides were dissolved at 10 μg/ml in PBS (pH 7.4). […] Color development for each well was achieved by secondary antibody (goat anti-mouse polyvalent immunoglobulin-HRP, Sigma) and substrate (O-phenylenediamine and H2O2) and Optical Density (OD) determined at 492 nm.

Another experiment has as its system C. albicans strain 3153A. In words: Fungal challenge and assessment of protection (disseminated candidiasis), peptide vaccines. In kind it is in vivo, BALB/c mice. Particulars: for survival rate: general peptides, experiment terminated 80 days post challenge; for protection against disseminated candidiasis (survival) / viable fungal units (CFUs) in kidneys: peptide-pulsed DC vaccine; for protection against disseminated candidiasis (survival): vs DPBS or DCs+CFA controls; for viable fungal units (CFUs) in kidneys: vs controls, detection limit 50 CFU per kidney pair. The method, then: C. albicans 3153A and SC5314, C. krusei (ATCC 6258), C. glabrata (ATCC 2001) and Saccharomyces cerevisiae (ATCC 9463) were obtained from the American Type Culture Collection (ATCC; Manassas, Va.) and were grown as stationary-phase yeast cells in glucose-yeast extract-peptone broth at 37° C., washed and suspended to the appropriate cell concentration (5×10^6/ml) in Dulbecco's PBS (DPBS; Sigma-Aldrich, St. Louis, Mo.), and used to infect mice intravenously (i.v.) as previously described (25, 29). C. albicans strain 3153A was also used for serum antibody absorption, immunofluorescence staining and flow cytometric analysis. Unless otherwise indicated, C. albicans strain 3153A was used to challenge the mice in the examples below.
Two weeks after the second boost, immune and control mice were infected intravenously (i.v.) with a lethal dose of live C. albicans yeast cells (5×10^5 in 0.1 ml of DPBS) prepared as described above and as before (53). Passively immunized mice (below) also received the same challenge dose. Protection was evaluated by monitoring animal survival for 80-100 days. The mice were monitored 2-3 times daily for the development of a moribund state, defined as being listless, disinterested in food or water, and nonreactive to finger probing. At the time that a mouse was deemed moribund, it was sacrificed and their kidneys (for some experiments, brains) were homogenized in DPBS and plated onto a nutrient agar to determine colony forming units (CFUs). After 80-100 days, the experiments were terminated and all the survivors at that time were sacrificed and their kidneys were assessed for CFU as before. The lowest limit of detection for the CFU assay was 50 CFU per kidney pair.
Two weeks after the second boost, immune and control mice were infected i.v. with a lethal dose of live C. albicans yeast cells (5×10^5 in 0.1 ml of DPBS). Passively immunized mice also received the same challenge dose. Protection was evaluated by monitoring animal survival for up to 120 days and by quantifying the number of CFU (mean±SE) per kidney pairs. Median survival times (MST) were statistically evaluated by Kaplan-Meier (GraphPad Prism, version 4). In all analyses, there were five mice per group (n=5), and a two-tailed t test was used.

A further experiment relates to C. albicans. Briefly: Immunofluorescence and flow cytometric analysis of binding to fungal cell surface. In kind it is cell-based. Particulars: live fungal cells reacted with immune serum of peptide-immunized mice. For orientation: A flow cytometer gives signals particle by particle.

On to “YGKDCVKCDLFDYAQE (cysteine added at positions 5 and 8) (cysteines added at positions 5 and 8) [Pep 11]”, for which, in experiment [1], the “effect on peptide-antibody binding (ELISA inhibition, peptide as inhibitor)” value was “bound well to antibody”. With “YGKDVKDLFDYAQE (methylated at positions 1 and 8) [Pep10]”, the “effect on peptide-antibody binding (ELISA inhibition, peptide as inhibitor)” value in experiment [1] was “bound well to antibody”. In the case of YDQVLDLSLLFNAIP [Met6-2], in the experiment on synthetic peptides, the “antibody responses (ELISA, plates coated with the peptide)” value (“antibody responses” for short) is recorded as “able to induce antibody responses”. Besides, the survival rate in the experiment with C. albicans strain 3153A (DC immunization) is listed as 80%. The “binding of antibody in the immune serum to the peptides expressed on C. albicans cell surface (flow cytometric analysis)” value (from here on “binding of antibody in the immune serum”) with C. albicans was “expressed on the fungal surface and are accessible to antibodies in immune sera”. As for VPLDGKTITNNQRI [Pgk1], in the experiment on C. albicans strain 3153A, the “protection against disseminated candidiasis (survival)” value is “some protection” and the “viable fungal units (CFUs) in kidneys” value is listed as “low or non-detectable CFUs”.

For “YGKDVKDLFDYAQE (methylated at position 2) [Pep3]”, in experiment [1], the “effect on peptide-antibody binding (ELISA inhibition, peptide as inhibitor)” value is reported as “little effect on peptide-antibody binding”.

Regarding FAIPAINVTSSSTVVAALE [Fba3], the “antibody responses” value in the experiment with synthetic peptides is on record as “able to induce antibody responses”. Also, the survival rate in the experiment on C. albicans strain 3153A (DC immunization) came to 80%. Further, in the experiment on C. albicans, the “binding of antibody in the immune serum” value is “expressed on the fungal surface and are accessible to antibodies in immune sera”. On to “YGKDVKDLFDYAQE (methylated at position 5) [Pep5]”, for which the “effect on peptide-antibody binding (ELISA inhibition, peptide as inhibitor)” value in experiment [1] is listed as “little effect on peptide-antibody binding”. Still for that read-out and setting: the value for “YGKDVKDLFDYAQE (methylated at position 3) [Pep4]” was “little effect on peptide-antibody binding”.

Consider QGETEEALIQKRSY [Hwp1], for which, in the experiment on C. albicans strain 3153A, the “protection against disseminated candidiasis (survival)” value is reported as “a high degree of protection” and the “viable fungal units (CFUs) in kidneys” value was “low or even non-detectable”.

As for SSSTVVAAL [Fba4], the “antibody responses” value with synthetic peptides was “able to induce antibody responses”. Moreover, the survival rate in the experiment on C. albicans strain 3153A (DC immunization) is on record as 60%. In addition, the “binding of antibody in the immune serum” value in the experiment on C. albicans was “expressed on the fungal surface and are accessible to antibodies in immune sera”.

For “YGKDVKDLFDYAQE (methylated at position 1) [Pep2]”, the “effect on peptide-antibody binding (ELISA inhibition, peptide as inhibitor)” value in experiment [1] is recorded as “little effect on peptide-antibody binding”.

With NRSPSTGEQKSSGI [Gap1], in the experiment with C. albicans strain 3153A, the “protection against disseminated candidiasis (survival)” value is listed as “neither of two other peptides Gap1, or Eno1 induced protection” and the “viable fungal units (CFUs) in kidneys” value is “slightly less fungal burden”. Turning to DSRGNPTVEVDFTT [Eno1], in the experiment with C. albicans strain 3153A, the “protection against disseminated candidiasis (survival)” value was “neither of two other peptides Gap1, or Eno1 induced protection” and the “viable fungal units (CFUs) in kidneys” value is “slightly less fungal burden”. For the sequence FAIPAINVTSSSTV [Fba2], in the experiment on synthetic peptides, the “antibody responses” value is “good and specific antibody responses”. Besides, in the experiment with C. albicans strain 3153A (general peptides experiment, DC immunization), the “protection (survival) vs DC+CFA control” value is “failed to induce good protection”.

With PRIGGQRELKKITE [Met6], in the experiment with C. albicans strain 3153A, the “protection against disseminated candidiasis (survival)” value is “a high degree of protection” and the “viable fungal units (CFUs) in kidneys” value is recorded as “low or even non-detectable”.
